This note sets out measurements from article PMC10830420, “Structures, functions and adaptations of the human LINE-1 ORF2 protein” (Nature, 2023).

Structures are written as SMILES.

For experiment [1], the target named is T1, ORF2p core (Homo sapiens, UniProt O00370).
T1 construct: His6-MBP-3C-ORF2p (238-1061, ORFeus-Hs) in pET41; His6-MBP (3C protease site) (N, cleaved yes); made in house; host or cells: E. coli
Put plainly: Gel-based L1 RT assay, ORF2p core, inhibition by NRTI triphosphates. In kind it is biochemical. To be noted: 100 nM dNTP mixture. How it is done: (§1) ORF2p core was preincubated with a template:primer containing a single site for the incorporation of a given nucleotide analogue. The primer/template sequence shown in the panel a illustrates the case of single incorporation of 3TC, with a single G for incorporation; the incoming template sequence for entecavir and carbovir has a single C, and for d4T a single A, each at position labeled “N”. Reactions were incubated for one minute at 37 °C with a 100 nM dNTP mixture and increasing concentrations of listed inhibitors. IC50 index, fold = IC50 (drug, µM) ÷ [dNTP] […] Fluorescein-labeled dNTPs (here, uracil-TP) are incorporated by ORF2p into a biotinylated primer, here shown against a poly(A) template. Detection is then achieved using FRET with a terbium cryptate labeled streptavidin, and the time-resolved technique and time-delayed emission from terbium cryptate reduces background from other fluorescent chemicals in the mix. In the presence of ORF2p RT inhibitors (RTIs), base incorporation is stopped and FRET signal is lost. […]
(§2) ORF2p reverse transcriptase activity assays […]
Gel-based RT activity assays consisted of pr e-incubating RTs with annealed DNA/RNA, DNA/DNA, or RNA/RNA 5’- end- radiolabeled or 5’-end-Cy5- o r FAM-labeled template:primer duplex or hybrid duplex and, where indicated, inhibitor in the presence of 0.1- 1 μ M dNTP or NTP mixture, 0.25 mM EDTA, 50 mM NaCl, and 25 mM Tris (pH 8) for 10 min at 37°C. Labeled nucleic acids were purchased from Dharmacon or IDT. Unless otherwise indicated, 15 μL reactions were initiated by the addition of 1.3 mM MgCl2, incubated for 10 min at 37 °C, and then stopped by the addition of 15 μL of formamide/EDTA (25 mM) mixture and incubated at 95 °C for 10 min. 3 μL reaction samples were subjected to denaturing 8 M urea 20% PAGE to resolve products followed by signal quantification (ImageQuant 5.2, GE Healthcare Bio- Sciences) through phosphorimaging (Amersham Typhoon 5, Cytivia). Scanned gel images are […]
minor products; original images are provided in an Extended Data file. […]

Experiment [2] deals with T1, ORF2p core. Put plainly: Homogeneous time-resolved fluorescence (HTRF) ORF2p RT assay. The experiment is classed as biochemical. Particulars: HTRF; NRTI NTPs. How it is done: as §1, §2
For HTRF RT assays157, 25 nM ORF2p core and 12. 5 nM t em plat e: primer was incubated at 25°C for 60 minutes
with 10 nM of fluorescein- 12- dUTP (Thermo), 1 µM each (dATP,dCTP,dGTP), and test compound in a 15 µL
reaction with buffer containing 50 mM Tris-HCl, 50 mM KCl, 10 mM MgCl2, 10 mM DTT, pH 8.1, and 1% final
On the technique in general: Time-resolved FRET reads energy transfer from a long-lived donor to a nearby acceptor.

Experiment [3] has as its target T2, Full-length ORF2p WT (FADD) (Homo sapiens, UniProt O00370).
T2 construct: gel-based RT assay of full-length ORF2p WT (FADD) or HIV-like (FMDD); His8 (C); HERV-K protease + TEV protease + TEV site (self-processed; leaves one Gly) (N, cleaved yes); made in house; host or cells: SF9 insect cells (MultiBac)
Put plainly: Gel-based RT assay of full-length ORF2p WT (FADD). In kind it is biochemical. Particulars: single-nucleotide-resolution RT assays. From the text: (§3) Crystal structure of AZT triphosphate bound to HIV-1 RT (PDB 5I42) versus model of AZT triphosphate bound to L1 ORF2p. […] Left, HIV-1 RT in the NNRTI-unbound conformation (PDB 7LRI). Residues involved in NNRTI-resistance are highlighted; space occupied by HIV-1-bound nevirapine is shadowed (PDB 4PUO). Right, equivalent region in L1 ORF2p. The long α-helix corresponds to residues 572–588 in ORF2p. […] Data in a, b and e are representative of two independent experiments and shown as mean ± s.d. […]
(§4) server155 and manually checked with cutoff of 2.5-3.3 Å for polar interactions and 3.7 Å for van der Waals […]
(§5) ORF2p reverse transcriptase activity assays
(§6) Microwell assays were performed using the reverse transcriptase assay, colorimetric (Roche) according to the manufacturer’s instructions, with the supplied poly(A) template and oligo(dT) 15 primer. ORF2p fractions were diluted for assay in lysis/binding buffer (50 mM Tris, 80 mM potassium chloride, 2.5 mM DTT, 0.75 mM EDTA, and 0.5% Triton X- 100; pH 7.8) and incorporation of digoxigenin- and biotin- labeled dUTP into DNA was measured by absorbance at 405 nm as compared to a 490 nm reference. […] 3 μL reaction samples were subjected to denaturing 8 M urea 20% PAGE to resolve products followed by signal quantification (ImageQuant 5.2, GE Healthcare Bio- Sciences) through phosphorimaging (Amersham Typhoon 5, Cytivia). […]

Experiment [4] deals with T3, A701M mutant full-length ORF2p (FMDD) (Homo sapiens, UniProt O00370, A701M).
T3 construct: His8 (C); HERV-K protease + TEV protease + TEV site (self-processed; leaves one Gly) (N, cleaved yes); made in house; host or cells: SF9 insect cells (MultiBac)
Briefly: Gel-based RT assay of full-length ORF2p A701M mutant (FMDD). The experiment is classed as biochemical.
Source text: as §3, §4, §5, §6

Experiment [5] has as its system L1 retrotransposition reporter in HeLa cells. Briefly: LINE-1 dual luciferase retrotransposition assay in HeLa cells. The experiment is classed as cell-based, human. To be noted: HeLa cells, stable dual luciferase L1 reporter, normalized to cell viability, n = 3 wells.
The subject of experiment [6] is interferon production in THP1 cells. Put plainly: Interferon reporter assay in THP1 cells (secreted luciferase). In kind it is cell-based, human. How it is done:
Culture Collection ( AT CC); THP1-Dual and THP1- Dual KO-TREX1 cells were from InvivoGen. All cell lines were maintained at 37 °C and 5% CO2 and validated and tested for mycoplasma. All plasmids and affinity reagents are described in Supplementary Tables 4-5 , respectively and available from Addgene at https://www.addgene.org/browse/article/28243724/. […]
Interferon reporter assay in THP1 cells
The type I interferon response was evaluated using THP1 -Dual and THP1-Dual KO-TREX1 cells (InvivoGen), which secrete a Lucia luciferase reporter gene under control of an interferon- responsive promoter. THP1-Dual KO-TREX1 cell were generated by stable biallelic knock-out of the TREX1 gene. Cell were treated with a dose titration of test compound in the presence of 1 µM 5- aza-2ʹ-deoxycytidine (decitabine, Sigma, #189825), which de- represses LINE-1121. Type 1 Interferon and cell viability were assessed after five days of treatment. QUANTI-LUC solution containing stabilizer was added to the cell supernatant and luminescence was measured on a p la t e reader, and cells were assessed for cell viability using CellTiter-Glo (Promega, #G9683) according to the manufacturer’s instructions.
LINE-1 dual luciferase retrotransposition assay
To assess the potency of inhibiting LINE-1 retrotransposon, a stable clonal dual luciferase L1 reporter cell line was generated and reported as described130,133 in the HeLa Tet-On 3G cell line (Takara, ). SB100x161 was used to integrate pRT006.2, a vector similar to pYX056 130 , which contains a bi-directional Tet-On promoter expressing both control Renilla luciferase and LINE-1 ORFeus-Hs Firefly luciferase antisense intron (AI) r epor t er 79,162. A single cell clone was selected with the highest doxycycline-induced luciferase signal vs baseline. Cells were mixed with compounds and induced for reporter expression with 500 ng/mL doxycycline (Sigma, #D9891) for 72 hours. Luminescence was measured using the Dual-Glo Luciferase Assay System (Promega, #E2940) following the manufacturer’s instructions, and the ratio of Firefly to Renilla Luciferase activity was used to measure […]
Telomerase activity assay
The human telomerase assay was performed with telomerase in MCF- 7 cell lysates using the Telo TAGGG Telomerase PCR ELISAplus kit (Roche). Test compounds (NTPs) were serially diluted in water, mixed with 0.2 µg of M CF- 7 lysate, and pre- incubated at room temperature for 15 minutes. Then the reaction was carried out for 30 minutes, amplified using PCR, and visualized colorimetrically per t he manufacturer’s instructions.
Cells were lysed in ice cold RIPA buffer containing 1x protease inhibitor tablet (Thermo), centrifuged for 10 minutes, and clarified lysates were quantified by BCA assay. […]
On the technique in general: A reporter such as luciferase makes a cellular process visible.

The target in experiment [7] is T4, human telomerase RT (TERT) (Homo sapiens, UniProt O14746).
T4 construct: of human telomerase RT (TERT) by NRTI triphosphates in a biochemical assay in MCF-7 cell lysate; endogenous in cells; host or cells: MCF-7 cell lysate
Briefly: Telomerase activity assay in MCF-7 cell lysate. The experiment is classed as biochemical. Particulars: NRTI triphosphates.

T4 sequence (O14746 whole entry): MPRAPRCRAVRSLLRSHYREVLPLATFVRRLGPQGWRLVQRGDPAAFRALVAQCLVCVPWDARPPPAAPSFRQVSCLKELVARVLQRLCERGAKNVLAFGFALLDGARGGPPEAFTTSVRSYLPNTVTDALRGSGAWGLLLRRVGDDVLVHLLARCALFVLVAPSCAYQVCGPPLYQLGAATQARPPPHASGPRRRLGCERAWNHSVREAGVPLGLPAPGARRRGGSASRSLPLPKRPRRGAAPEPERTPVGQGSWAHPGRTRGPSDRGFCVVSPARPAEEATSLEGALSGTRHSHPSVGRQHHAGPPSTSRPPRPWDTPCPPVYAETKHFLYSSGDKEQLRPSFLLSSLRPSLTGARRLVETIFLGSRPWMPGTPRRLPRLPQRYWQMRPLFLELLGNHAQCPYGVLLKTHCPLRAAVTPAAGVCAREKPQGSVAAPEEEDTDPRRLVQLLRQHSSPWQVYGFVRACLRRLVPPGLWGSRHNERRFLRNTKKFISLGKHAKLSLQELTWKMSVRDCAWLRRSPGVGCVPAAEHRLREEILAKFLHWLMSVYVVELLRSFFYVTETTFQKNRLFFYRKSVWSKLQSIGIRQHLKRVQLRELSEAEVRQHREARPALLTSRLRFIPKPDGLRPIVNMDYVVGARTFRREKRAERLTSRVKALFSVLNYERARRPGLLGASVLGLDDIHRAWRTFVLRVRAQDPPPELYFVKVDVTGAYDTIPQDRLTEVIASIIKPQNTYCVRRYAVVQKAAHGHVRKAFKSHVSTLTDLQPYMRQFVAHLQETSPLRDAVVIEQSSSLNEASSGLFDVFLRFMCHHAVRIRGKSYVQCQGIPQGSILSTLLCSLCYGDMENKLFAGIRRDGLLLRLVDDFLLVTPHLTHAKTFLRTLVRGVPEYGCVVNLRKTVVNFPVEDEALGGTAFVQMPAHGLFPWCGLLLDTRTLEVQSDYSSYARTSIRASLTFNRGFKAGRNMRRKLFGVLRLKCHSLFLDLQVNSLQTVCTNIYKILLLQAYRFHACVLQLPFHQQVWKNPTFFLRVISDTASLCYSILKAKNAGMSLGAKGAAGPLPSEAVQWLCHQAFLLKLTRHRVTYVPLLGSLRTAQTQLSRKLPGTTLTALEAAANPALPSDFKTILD

A word on the IC50: it is the midpoint of a concentration-inhibition curve. On to `Nc1ccn([C@@H]2CS[C@H](CO)O2)c(=O)n1` [3TC, lamivudine], for which the “IC50 index, fold = IC50 (drug, µM) ÷ [dNTP] (natural counterpart, 0.1 µM)” value at ORF2p core [1] is listed as 56 fold. Further, the IC50 at ORF2p core [1] (NTP forms of NRTIs, one minute at 37 °C) was 5000 to 7000 nM; against ORF2p core [2], 200 to 750 nM; in experiment [5], 900 nM; in experiment [5] (Homo sapiens, HeLa) it was 1000 to 5000 nM. Besides, the “inhibition of full-length ORF2p compared with ORF2p core” value in experiment [3] is on record as “similarly inhibited”. In addition, the “fold more potent in inhibiting A701M mutant full-length ORF2p (FMDD) than wild type (FADD)” value in experiment [4] is “approximately 15 fold”.
With `Cc1cn(C2C=CC(COP(=O)(OCOC(=O)OC(C)C)OCOC(=O)OC(C)C)O2)c(=O)[nH]c1=O` (stereo not drawn) [POC d4T, d4T bis(isopropoxycarbonyloxymethyl)phosphate], the “baseline and decitabine-induced IFN production” value in experiment [6] (10 µM, THP1 cells, 1 µM decitabine) is given as “reduced IFN further”. Moreover, the “fold more potent than d4T in suppressing interferon secretion” value in experiment [6] (TREX1 knockout THP1 cells, 5 days, 1 µM decitabine) is reported as “approximately 30 fold”.
As to `Cc1cn([C@H]2C=C[C@@H](COP(=O)(O)OP(=O)(O)OP(=O)(O)O)O2)c(=O)[nH]c1=O` [d4T-TP], the IC50 at ORF2p core [2] is 9 nM; in experiment [7] it was 15000 nM.
Take `Nc1ncn([C@H]2C[C@H](O)[C@@H](CO)O2)c(=O)n1` [decitabine, 5-aza-2ʹ-deoxycytidine]: the “interferon (IFN) production” value in experiment [6] (1 µM, THP1 monocytes) was “increased”.
